Reference: ChEMBL document CHEMBL1221247, “Oxidative stimuli-responsive nanoprodrug of camptothecin kills glioblastoma cells” (2010)
Calls of active or inactive are those of the source. The calls are words filed in the database; no cut-off is given here.

Assays:
[1] = tested on: U-87MG ATCC; assay: Cytotoxicity against human U87MG cells at 250 nM after 6 days; type: functional, cell-based
[2] = Cytotoxicity against human U87MG cells after 6 days; type: functional, U-87MG ATCC; details: U-87 MG, 144 h, read-out: LD50 (the source's name)

Row | SMILES | Activity [1] | CC50 [2] [nM]
1 | CC[C@@]1(OC(=O)OCCOCCOCCOCCOC(=O)CCCC[C@@H]2CCSS2)C(=O)OCc2c1cc1n(c2=O)Cc2cc3ccccc3nc2-1 | Active | 20
2 | CC[C@@]1(O)C(=O)OCc2c1cc1n(c2=O)Cc2cc3ccccc3nc2-1 [CAMPTOTHECIN] | Active | 20
